“Also recorded” adds a separate entry of the source. Counter-ions that a name gives are not always drawn.
Key:
[1] = 90 day study of bone calcium level and markers of bone mineralization and turnover; assay type: in vivo; settings: 90 day experimental duration
[2] = blood ionized calcium concentration after ingestion of calcium supplement (clinical tests, FIG. 1)
From the text: For some time microcrystalline hydroxyapatite (MCHA) manufactured from animal bones has been used as a slightly unconventional calcium supplement. Considering that bone mineral is largely calcium phosphate in the form of hydroxyapatite, it seems logical to use MCHA as a source of bone calcium. However, there can be some difficulty in purifying MCHA from native bones because there is considerable excess protein and lipid that must be removed to provide a stable as well as readily digestible product. As might be imagined there is considerable variation in the process parameters for making an MCHA product. In a study intended to compare MCHA to conventional calcium supplements, the inventors analyzed MCHA produced using varied protocols. They were surprised to discover that depending on how the MCHA is manufactured, its rate of bioabsorption changes quite dramatically. After considerable experimentation, the inventors developed the current product which was then compared to calcium carbonate and calcium citrate in both an absorption (measured by blood calcium concentration) and a bone mineralization/density study.
However, it must be kept in mind that the blood calcium concentration is maintained by withdrawing calcium from the bones if the dietary supply is insufficient.
In FIG. 1 the blood levels of ionized calcium of two different MHCA preparations (see below for preparation details) are compared to blood calcium levels provided by other calcium supplements.

duration of spiking of blood calcium concentration ([2]; human, in vivo) | Molecule | bone calcium level and other markers of bone mineralization and turnover, compared with calcium-free placebo [1] | bone calcium level and other markers of bone mineralization and turnover, supplements compared with each other [1] | duration of spiking of blood calcium concentration ([2]; after ingestion) | blood ionized calcium level after ingestion ([2]; compared with calcium-free placebo/control) | blood ionized calcium level after ingestion ([2]; human, in vivo) | blood ionized calcium level after ingestion ([2]; in vivo)
 | O=C([O-])[O-].[Ca+2] [calcium carbonate] | statistically significantly different from the calcium-free placebo | not statistically significantly different from each other | ca. 8 hour | spike above the normal 1 mM concentration; also recorded: rapid increase in ionized blood calcium |  | 
ca. 8 hour | O=C(O)CC(O)(CC(=O)O)C(=O)O [calcium citrate] | statistically significantly different from the calcium-free placebo | not statistically significantly different from each other |  |  | spike above the normal 1 mM concentration | rapid increase in ionized blood calcium
 | microcrystalline hydroxyapatite [MCHA] |  |  |  |  |  | not statistically significantly different from the calcium-free placebo

— patent US10744188B2, “High osteocalcin microcrystalline hydroxyapatite for calcium supplement” (Waitaki Biosciences, priority 2013, dated 2020)
